This note sets out measurements from the supplement of paper PMC3493320.

In general, IC50 refers to the point on the concentration scale where inhibition reaches its midpoint.

Some results are limits rather than exact numbers.

For this assay, the system named is NCI-H295R. The experiment in a line: IC50 (antiproliferative, ATP content). Conditions: 48 h. A digest of the protocol:
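Adrenocortical carcinoma cells in 1536-well plates (1500 per well, serum-free DMEM plus ITS, overnight culture) were exposed for 48 h at 37 °C, 5% CO2 to pin-transferred compounds at 8 final concentrations ranging 0.6 nM to 46 µM. ATP content was then read as CellTiter-Glo luminescence and normalised to vehicle and positive-control wells. The IC50 came from logistic curve fits, and any compound lacking a concentration response was recorded as above the top dose.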
`NC[C@H]1O[C@H](O[C@H]2[C@H](O[C@@H]3O[C@H](CO)[C@@H](O)[C@H]3O)C(O)[C@H](N)C[C@@H]2N)[C@H](N)[C@@H](O)[C@@H]1O.O=S(=O)(O)O` (stereo partly drawn) gave an IC50 of over 46 µM.
Under `CC[N+](CC)(CC)CCOc1ccc(/C=C/c2ccccc2)cc1.[I-]` stands over 46 µM; under `CC(=O)OCC(=O)NCCCOc1cccc(CN2CCCCC2)c1.Cl`, over 46 µM.
Under `O=C([O-])C[C@H](O)C[C@H](O)/C=C/c1c(C2CC2)nc2ccccc2c1-c1ccc(F)cc1.O=C([O-])C[C@H](O)C[C@H](O)/C=C/c1c(C2CC2)nc2ccccc2c1-c1ccc(F)cc1.[Ca+2]` stands over 46 µM.
In the case of `O.O.O.O.O.O.O=P([O-])([O-])OP(=O)([O-])OP(=O)([O-])[O-].[Na+].[Na+].[Na+].[Na+].[Na+]` it was over 46 µM; in that of `O=C(CCNNC(=O)c1ccncc1)NCc1ccccc1`, over 46 µM; in that of `Cn1c(=O)c2c(ncn2CCOC(=O)C(C)(C)Oc2ccc(Cl)cc2)n(C)c1=O`, over 46 µM.
Compound `Cl.O=C(c2cn(C)c1ccccc12)[C@H]3CC=4N\C=N/C=4CC3` registered a 50% inhibitory concentration (IC50) of over 46 µM.
In the case of `OC(Cn1cncn1)(Cn1cncn1)c1ccc(F)cc1F` it was over 46 µM; in that of `COC(=O)C(c1ccccc1)C1CCCCN1.Cl` (stereo not drawn), over 46 µM.
Under `C=C1[C@H](CO)[C@@H](O)C[C@@H]1n1cnc2c(=O)[nH]c(N)nc21` stands over 46 µM; under `C#C[C@]1(O)CC[C@H]2[C@@H]3CCC4=CC(=O)CCC4=C3C=C[C@@]21CC`, over 46 µM; under `OCC(CO)N[C@H]1C[C@](O)(CO)[C@@H](O)[C@H](O)[C@H]1O`, over 46 µM.
Turning to `O=[C@@](N[C@@H]([C@@](O)=O)CC2=CC=CC=C2)[C@@H]1CC[C@@H]([C@H](C)C)CC1`, the IC50 is over 46 µM.
Under `CCN(CC)CCOC(=O)C1(c2ccccc2)CCCC1.CCN(CC)CCOC(=O)C1(c2ccccc2)CCCC1.O=S(=O)(O)CCS(=O)(=O)O` stands over 46 µM.
In the case of `Cl.O=C(OCCN1CCCCC1)C(O)(c1ccccc1)c1ccccc1` it was over 46 µM; in that of `O=C(OC[C@H]1O[C@](O)(COC(=O)c2cccnc2)[C@@H](OC(=O)c2cccnc2)[C@@H]1OC(=O)c1cccnc1)c1cccnc1`, over 46 µM; in that of `COC1=C(OC)C(=O)C(C/C=C(\C)CC/C=C(\C)CC/C=C(\C)CC/C=C(\C)CC/C=C(\C)CC/C=C(\C)CC/C=C(\C)CC/C=C(\C)CC/C=C(\C)CCC=C(C)C)=C(C)C1=O`, over 46 µM.
Under `Clc1cccc(Cl)c1N=C1NCCN1` stands over 46 µM; under `C(N3C2)(SCC3)=N[C@H]2[C@@]1=CC=CC=C1.Cl`, over 46 µM.
`CC(C)NCC(O)c1ccc(O)c(O)c1` (stereo not drawn): the IC50 was over 46 µM.
In the case of `CCOC(=O)c1cccnc1` it was over 46 µM.
`Cc1ccc(-c2nc3ccc(C)cn3c2CC(=O)N(C)C)cc1` came in with an IC50 of over 46 µM.
Under `CN1CC(=O)NC1=N` stands over 46 µM; under `Cc1cccc(C)c1NC(=O)CN1CCN(CCCC(c2ccc(F)cc2)c2ccc(F)cc2)CC1`, over 46 µM.
Under `O=C1C(CCS(=O)c2ccccc2)C(=O)N(c2ccccc2)N1c1ccccc1` (stereo not drawn) stands over 46 µM; under `OC(c1ccccc1)(c1ccccc1)C1CN2CCC1CC2` (stereo not drawn), over 46 µM.
In the case of `CCN1CCN(C(=O)N[C@@H](C(=O)N[C@@H]2C(=O)N3C(C(=O)[O-])=C(CSc4nnnn4C)CS[C@H]23)c2ccc(O)cc2)C(=O)C1=O.[Na+]` it was over 46 µM; in that of `Cc1cc(CC(=O)[O-])n(C)c1C(=O)c1ccc(Cl)cc1.[Na+]`, over 46 µM; in that of `CC(C)(S)[C@@H](N)C(=O)O`, over 46 µM.
`O=C([O-])c1cc(N=Nc2ccc(O)c(C(=O)[O-])c2)ccc1O.[Na+].[Na+]`: the IC50 is over 46 µM.
In the case of `CN[C@H]1C[C@@H](N)[C@H](O)[C@@H](O[C@@H]2O[C@H](CO)[C@H](O)[C@@H]3OC4(O[C@H]23)O[C@H]([C@H](N)CO)[C@H](O)[C@H](O)[C@H]4O)[C@@H]1O` (stereo partly drawn) it was over 46 µM; in that of `CCN(C)C(=O)Oc1cccc([C@H](C)N(C)C)c1.O=C(O)[C@@H](O)[C@H](O)C(=O)O`, over 46 µM.
Under `CN(C)C=Nc1c(I)cc(I)c(CCC(=O)[O-])c1I.[Na+]` stands over 46 µM; under `Clc1ccc2nsnc2c1NC1=NCCN1`, over 46 µM.
Under `Cc1ccc(/N=C/N(C)/C=N/c2ccc(C)cc2C)c(C)c1` stands over 46 µM; under `COc1cc2nc(N3CCN(C(=O)C4COc5ccccc5O4)CC3)nc(N)c2cc1OC.CS(=O)(=O)O` (stereo not drawn), over 46 µM.
For the compound `NCC[C@H](O)C(=O)N[C@@H]1C[C@H](N)[C@@H](O[C@H]2O[C@H](CN)[C@@H](O)[C@H](O)[C@H]2N)[C@H](O[C@@H]2O[C@H](CO)[C@H](O)[C@H]2O)[C@H]1O.O=S(=O)(O)O.O=S(=O)(O)O`, the IC50 was over 46 µM.
In the case of `O=C(O)CCC(=O)C(=O)O` it was over 46 µM.
In the case of `CN(C)CC/C=C1/c2ccccc2COc2ccc(CC(=O)O)cc21.Cl` it was over 46 µM.
Under `CCCCC1C(=O)N(c2ccccc2)N(c2ccc(O)cc2)C1=O` (stereo not drawn) stands over 46 µM; under `CCN(CC)CCNC(C(=O)OCCC(C)C)c1ccccc1` (stereo not drawn), over 46 µM; under `C=CCOc1ccccc1OCC(O)CNC(C)C.Cl` (stereo not drawn), over 46 µM.
`FC(F)(F)COCC(F)(F)F` came in with a 50% inhibitory concentration (IC50) of over 46 µM.
Under `CCC(=O)O[C@]1(C(=O)CCl)[C@@H](C)C[C@H]2[C@@H]3CCC4=CC(=O)C=C[C@]4(C)[C@@]3(F)[C@@H](O)C[C@@]21C` stands over 46 µM.
In the case of `CC1=C(C)C(=O)C(C(CCCCCC(=O)O)c2ccccc2)=C(C)C1=O` (stereo not drawn) it was over 46 µM; in that of `Cc1cccc(C(C)c2c[nH]cn2)c1C` (stereo not drawn), over 46 µM; in that of `O=C(O)c1ccc(NC2OC[C@@H](O)[C@H](O)[C@H]2O)cc1` (stereo partly drawn), over 46 µM.
Under `COc1c(N2CCNC(C)C2)c(F)cc2c(=O)c(C(=O)O)cn(C3CC3)c12` (stereo not drawn) stands over 46 µM; under `CCCCOc1cc(C(=O)NCCN(CC)CC)c2ccccc2n1`, over 46 µM; under `O=C3N1/C(=C(\CS[C@@H]1[C@@H]3NC(=O)Cc2cccs2)C[n+]4ccccc4)C([O-])=O`, over 46 µM.
Compound `O=C(c1ccccc1)C(O)c1ccccc1` (stereo not drawn) showed an IC50 of over 46 µM.
In the case of `COc1ccc(C(=O)c2ccc(C)cc2)c(O)c1` it was over 46 µM; in that of `CC1C(=O)CC2C3(C)CCC2(C(C)C(=O)O)C(=O)C13` (stereo not drawn), over 46 µM; in that of `O[C@]([C@@H](CC3)CC[C@@]3(C#N)C(C=C1OC2CCCC2)=CC=C1OC)=O`, over 46 µM.
The compound `NCC(O)CC(=O)O` (stereo not drawn) registered an IC50 of over 46 µM.
Consider `COc1cc(/C=C/C(=O)N2CCN(CC(=O)N3CCCC3)CC2)cc(OC)c1OC.O=C(O)/C=C\C(=O)O`, for which the IC50 was over 46 µM.
Under `N[C@H](C)[C@@H](O)[C@]1=CC=CC=C1.Cl` stands over 46 µM.
In the case of `c1ccc2sc(SSc3nc4ccccc4s3)nc2c1` it was over 46 µM; in that of `CC(C)(O)C(Cl)(Cl)Cl`, over 46 µM; in that of `O=C([C@@H](N(C)[C@]([C@H](CCC4)N4C([C@@H](CC)N5)=O)=O)CC2=CC=CC=C2)N(CCC1=O)C(C1)C(N[C@H](C(OC(C)[C@H](NC(C6=NC=CC=C6O)=O)C5=O)=O)C3=CC=CC=C3)=O` (stereo partly drawn), over 46 µM.
The compound `Cc1cccc(C)c1NC(=O)CN(CC(=O)O)CC(=O)O` came in with an IC50 of over 46 µM.
Under `COc1ccc(C(Cl)=C(c2ccc(OC)cc2)c2ccc(OC)cc2)cc1` stands over 46 µM; under `C=CC(C)(O)CC/C=C(\C)CCC=C(C)C` (stereo not drawn), over 46 µM.
Under `N[C@@H](Cc1ccc(Oc2cc(I)c(O)c(I)c2)c(I)c1)C(=O)O` stands over 46 µM.
Under `CCCCC(=O)O[C@]1(C(=O)CO)CC[C@H]2[C@@H]3CCC4=CC(=O)CC[C@]4(C)[C@H]3[C@@H](O)C[C@@]21C` stands over 46 µM; under `CCCCN(CCCC)CCCOC(=O)c1ccc(N)cc1`, over 46 µM; under `CC(C)CCC[C@@H](C)[C@H]1CC[C@H]2[C@@H]3CC=C4C[C@@H](O)CC[C@]4(C)[C@H]3CC[C@]12C`, over 46 µM.
`CCCN1CCC[C@@H]2Cc3n[nH]cc3C[C@H]21`: the IC50 was over 46 µM.
In the case of `CCC1C2CC3[C@@H]4N(C)c5ccccc5C45CC(C2[C@H]5O)N3[C@@H]1O` (stereo partly drawn) it was over 46 µM.
The compound `O=C(O)CCCCC1CCSS1` (stereo not drawn) registered an IC50 of over 46 µM.
In the case of `O=C(NNCNNC(=O)c1ccncc1)c1ccncc1` it was over 46 µM; in that of `C=C[C@H]1CN2CC[C@H]1C[C@@H]2[C@@H](O)c1ccnc2ccc(OC)cc12`, over 46 µM.
Consider `Cc1ccc(N(CC2=NCCN2)c2cccc(O)c2)cc1`, for which the half-inhibitory concentration (IC50) was over 46 µM.
`CC(C)N1CCN(c2ccc(OC[C@H]3COC(Cn4cncn4)(c4ccc(Cl)cc4Cl)O3)cc2)CC1` (stereo partly drawn): the IC50 is over 46 µM.
The compound `O=C(O)c1ccccc1Nc1cccc(C(F)(F)F)c1` gave an IC50 of over 46 µM.
The compound `COc1ccc2c(=O)c(C)c(-c3ccccc3)oc2c1CN(C)C.Cl` displayed an IC50 of over 46 µM.
In turn, `CC(=O)N[C@@H]([C@@H](O)[C@H](O)[C@H](O)CO)[C@@H](O)CC(=O)C(=O)O` came in with an IC50 of over 46 µM.
Under `NC(Cc1ccc(Cl)cc1)C(=O)O` (stereo not drawn) stands over 46 µM.
Under `CC[N+](CC)(CC)CCC(O)(c1ccccc1)C1CCCCC1.[Cl-]` (stereo not drawn) stands over 46 µM; under `NNC(=O)CP(=O)(c1ccccc1)c1ccccc1`, over 46 µM.
Under `Cc1nc2ccccc2n1Cc1ccc(Cl)cc1` stands over 46 µM; under `Cc1cc(CC(=O)O)c(C)n1-c1ccc(Cl)cc1`, over 46 µM.
